US9695155B2, “Herbicidal substituted pyrimidinyloxy benzene compounds” (E. I. DU PONT DE NEMOURS AND COMPANY, priority 2013, dated 2017)

Assays:
wild oat = experiment: Test D preemergence; format: in vivo, Avena fatua; settings: Avena fatua, pre-emergence
Text: (§1) Seeds of plant species selected from bluegrass (annual bluegrass, Poa annua), blackgrass (Alopecurus myosuroides), canarygrass (littleseed canarygrass, Phalaris minor), chickweed (common chickweed, Stellaria media), galium (catchweed bedstraw, Galium aparine), bromegrass, downy (downy bromegrass, Bromus tectorum), field poppy (Papaver rhoeas), field violet (Viola arvensis), green foxtail (Setaria viridis), deadnettle (henbit deadnettle, Lamium amplexicaule), Italian ryegrass (Lolium multiflorum), kochia (Kochia scoparia), lambsquarters (Chenopodium album), oilseed rape (Brassica napus), pigweed (Amaranthus retroflexus), chamomile (scentless chamomile, Matricaria inodora), Russian thistle (Salsola kali), speedwell (bird's-eye speedwell, Veronica persica), spring barley (Hordeum vulgare), spring wheat (Triticum aestivum), wild buckwheat (Polygonum convolvulus), wild mustard (Sinapis arvensis), wild oat (Avena fatua), wild radish (Raphanus raphanistrum), windgrass (Apera spica-venti), winter barley (Hordeum vulgare), and winter wheat (Triticum aestivum) were planted into a silt loam soil and treated preemergence with test chemicals formulated in a non-phytotoxic solvent mixture which included a surfactant.
(§2) At the same time, these species were planted in pots containing Redi-Earth® planting medium (Scotts Company, 14111 Scottslawn Road, Marysville, Ohio 43041) comprising spaghnum peat moss, vermiculite, wetting agent and starter nutrients and treated with postemergence applications of the test chemicals formulated in the same manner. Plants ranged in height from 2 to 18 cm (1- to 4-leaf stage). Treated plants and controls were maintained in a controlled growth environment for 7 to 21 days after which time all species were compared to controls and visually evaluated. Plant response ratings, summarized in Table D, are based on a scale of 0 to 100 where 0 is no effect and 100 is complete control. A dash (-) response means no test result.

deadnettle = experiment: Test D postemergence; format: in vivo, Lamium amplexicaule; settings: Lamium amplexicaule, post-emergence
Text: as §1, §2

wild radish [1] = experiment: Test D postemergence; format: in vivo, Raphanus raphanistrum; settings: Raphanus raphanistrum, post-emergence
Text: as §1, §2

field violet = experiment: Test D postemergence; format: in vivo, Viola arvensis; settings: Viola arvensis, post-emergence
Text: as §1, §2

wild mustard [2] = experiment: Test D postemergence; format: in vivo, Sinapis arvensis; settings: Brassica, post-emergence
Text: as §1, §2

oilseed rape = experiment: Test D preemergence; format: in vivo, Brassica napus; settings: Brassica napus, pre-emergence
Text: as §1, §2

wild buckwheat = experiment: Test D preemergence; format: in vivo, Polygonum convolvulus; settings: Fallopia convolvulus, pre-emergence
Text: as §1, §2

speedwell = experiment: Test D preemergence; format: in vivo, Veronica persica; settings: Veronica persica, pre-emergence
Text: as §1, §2

green foxtail = experiment: Test D postemergence; format: in vivo, Setaria viridis; settings: Setaria viridis, post-emergence
Text: as §1, §2

wild mustard [3] = experiment: Test D preemergence; format: in vivo, Sinapis arvensis; settings: Brassica, pre-emergence
Text: as §1, §2

wild radish [4] = experiment: Test D preemergence; format: in vivo, Raphanus raphanistrum; settings: Raphanus raphanistrum, pre-emergence
Text: as §1, §2

windgrass = experiment: Test D preemergence; format: in vivo, Apera spica-venti; settings: Apera spica-venti, pre-emergence
Text: as §1, §2

FC(F)(F)COc1cnn(-c2ccccc2Oc2ncc(Cl)cn2)c1 [Compound 138, 5-chloro-2-[2-[4-(2,2,2-trifluoroethoxy)-1H-pyrazol-1-yl]phenoxy]pyrimidine] was tested, and the pest or weed control at 16 g/ha (wild oat; 16 g ai/ha, scale 0 (no effect) to 100 (complete control), read-out: Plant response rating, Oat, Wild) was 0%, the pest or weed control at 31 g/ha (wild oat; 31 g ai/ha, scale 0-100, read-out: Plant response rating, Oat, Wild) was 0% and the pest or weed control at 62 g/ha (wild oat; 62 g ai/ha, scale 0-100, read-out: Plant response rating, Oat, Wild) was 0%. It also gave a pest or weed control at 125 g/ha (wild oat; 125 g ai/ha, scale 0-100, read-out: Plant response rating, Oat, Wild) of 0%, a pest or weed control at 16 g/ha (deadnettle; 16 g ai/ha, scale 0-100, read-out: Plant response rating, Deadnettle) of 5% and a pest or weed control at 31 g/ha (deadnettle; 31 g ai/ha, scale 0 to 100 (0 no effect, 100 complete control), read-out: Plant response rating, Deadnettle) of 5%. The pest or weed control at 62 g/ha (deadnettle; 62 g ai/ha, scale 0 to 100 (0 no effect, 100 complete control), read-out: Plant response rating, Deadnettle) was 15%, the pest or weed control at 125 g/ha (deadnettle; 125 g ai/ha, scale 0 to 100 (0 no effect, 100 complete control), read-out: Plant response rating, Deadnettle) was 25% and the pest or weed control at 16 g/ha (wild radish [1]; 16 g ai/ha, scale 0-100, read-out: Plant response rating, Radish, Wild) was 60%. The pest or weed control at 31 g/ha (wild radish [1]; 31 g ai/ha, scale 0 to 100 (0 no effect, 100 complete control), read-out: Plant response rating, Radish, Wild) was 65%, the pest or weed control at 62 g/ha (wild radish [1]; 62 g ai/ha, scale 0 to 100 (0 no effect, 100 complete control), read-out: Plant response rating, Radish, Wild) was 80% and the pest or weed control at 125 g/ha (wild radish [1]; 125 g ai/ha, scale 0 to 100 (0 no effect, 100 complete control), read-out: Plant response rating, Radish, Wild) was 90%. The pest or weed control at 16 g/ha (field violet; 16 g ai/ha, scale 0-100, read-out: Plant response rating, Field Violet) was 25%, the pest or weed control at 31 g/ha (field violet; 31 g ai/ha, scale 0 to 100 (0 no effect, 100 complete control), read-out: Plant response rating, Field Violet) was 50% and the pest or weed control at 62 g/ha (field violet; 62 g ai/ha, scale 0 to 100 (0 no effect, 100 complete control), read-out: Plant response rating, Field Violet) was 65%. The pest or weed control at 125 g/ha (field violet; 125 g ai/ha, scale 0 to 100 (0 no effect, 100 complete control), read-out: Plant response rating, Field Violet) was 75%, the pest or weed control at 16 g/ha (wild mustard [2]; 16 g ai/ha, scale 0-100, read-out: Plant response rating, Mustard, Wild) was 65% and the pest or weed control at 31 g/ha (wild mustard [2]; 31 g ai/ha, scale 0 to 100 (0 no effect, 100 complete control), read-out: Plant response rating, Mustard, Wild) was 75%. For the same molecule, the pest or weed control at 62 g/ha (wild mustard [2]; 62 g ai/ha, scale 0 to 100 (0 no effect, 100 complete control), read-out: Plant response rating, Mustard, Wild) was 75%, the pest or weed control at 125 g/ha (wild mustard [2]; 125 g ai/ha, scale 0 to 100 (0 no effect, 100 complete control), read-out: Plant response rating, Mustard, Wild) was 75% and the plant injury at 16 g/ha (oilseed rape; 16 g ai/ha, scale 0 (no effect) to 100 (complete control), read-out: Plant response rating, Oilseed Rape) was 35%. For the same molecule, the plant injury at 31 g/ha (oilseed rape; 31 g ai/ha, scale 0-100, read-out: Plant response rating, Oilseed Rape) was 30%, the plant injury at 62 g/ha (oilseed rape; 62 g ai/ha, scale 0-100, read-out: Plant response rating, Oilseed Rape) was 50% and the plant injury at 125 g/ha (oilseed rape; 125 g ai/ha, scale 0-100, read-out: Plant response rating, Oilseed Rape) was 65%. The pest or weed control at 16 g/ha (wild buckwheat; 16 g ai/ha, scale 0 (no effect) to 100 (complete control), read-out: Plant response rating, Buckwheat, Wild) was 60%, the pest or weed control at 31 g/ha (wild buckwheat; 31 g ai/ha, scale 0-100, read-out: Plant response rating, Buckwheat, Wild) was 35% and the pest or weed control at 62 g/ha (wild buckwheat; 62 g ai/ha, scale 0-100, read-out: Plant response rating, Buckwheat, Wild) was 55%. The pest or weed control at 125 g/ha (wild buckwheat; 125 g ai/ha, scale 0-100, read-out: Plant response rating, Buckwheat, Wild) was 75%, the pest or weed control at 16 g/ha (speedwell; 16 g ai/ha, scale 0 (no effect) to 100 (complete control), read-out: Plant response rating, Speedwell) was 70% and the pest or weed control at 31 g/ha (speedwell; 31 g ai/ha, scale 0 (no effect) to 100 (complete control), read-out: Plant response rating, Speedwell) was 100%. The pest or weed control at 62 g/ha (speedwell; 62 g ai/ha, scale 0-100, read-out: Plant response rating, Speedwell) was 100%, the pest or weed control at 125 g/ha (speedwell; 125 g ai/ha, scale 0-100, read-out: Plant response rating, Speedwell) was 100% and the pest or weed control at 16 g/ha (green foxtail; 16 g ai/ha, scale 0-100, read-out: Plant response rating, Foxtail, Green) was 20%. The pest or weed control at 31 g/ha (green foxtail; 31 g ai/ha, scale 0 to 100 (0 no effect, 100 complete control), read-out: Plant response rating, Foxtail, Green) was 20%, the pest or weed control at 62 g/ha (green foxtail; 62 g ai/ha, scale 0 to 100 (0 no effect, 100 complete control), read-out: Plant response rating, Foxtail, Green) was 20% and the pest or weed control at 125 g/ha (green foxtail; 125 g ai/ha, scale 0 to 100 (0 no effect, 100 complete control), read-out: Plant response rating, Foxtail, Green) was 30%. It also gave a pest or weed control at 16 g/ha (wild mustard [3]; 16 g ai/ha, scale 0 (no effect) to 100 (complete control), read-out: Plant response rating, Mustard, Wild) of 55%, a pest or weed control at 31 g/ha (wild mustard [3]; 31 g ai/ha, scale 0-100, read-out: Plant response rating, Mustard, Wild) of 65% and a pest or weed control at 62 g/ha (wild mustard [3]; 62 g ai/ha, scale 0-100, read-out: Plant response rating, Mustard, Wild) of 100%. For the same molecule, the pest or weed control at 125 g/ha (wild mustard [3]; 125 g ai/ha, scale 0-100, read-out: Plant response rating, Mustard, Wild) was 100%, the pest or weed control at 16 g/ha (wild radish [4]; 16 g ai/ha, scale 0 (no effect) to 100 (complete control), read-out: Plant response rating, Radish, Wild) was 90% and the pest or weed control at 31 g/ha (wild radish [4]; 31 g ai/ha, scale 0 (no effect) to 100 (complete control), read-out: Plant response rating, Radish, Wild) was 85%. For the same molecule, the pest or weed control at 62 g/ha (wild radish [4]; 62 g ai/ha, scale 0-100, read-out: Plant response rating, Radish, Wild) was 70%, the pest or weed control at 125 g/ha (wild radish [4]; 125 g ai/ha, scale 0-100, read-out: Plant response rating, Radish, Wild) was 85% and the pest or weed control at 16 g/ha (windgrass; 16 g ai/ha, scale 0 (no effect) to 100 (complete control), read-out: Plant response rating, Windgrass) was 0%. The pest or weed control at 31 g/ha (windgrass; 31 g ai/ha, scale 0 (no effect) to 100 (complete control), read-out: Plant response rating, Windgrass) was 0%, the pest or weed control at 62 g/ha (windgrass; 62 g ai/ha, scale 0-100, read-out: Plant response rating, Windgrass) was 0% and the pest or weed control at 125 g/ha (windgrass; 125 g ai/ha, scale 0-100, read-out: Plant response rating, Windgrass) was 15%.
